Source: ChEMBL document CHEMBL1152108, “Dual metalloprotease inhibitors. II. Effect of substitution and stereochemistry on benzazepinone based mercaptoacetyls” (Bioorg Med Chem Lett, 1994)
One block for each molecule: values may come before it.

What was measured:
[1] = target: Angiotensin-converting enzyme (Homo sapiens, UniProt P12821); assay: Inhibition of Angiotensin I converting enzyme; conditions: read-out: I50
Neprilysin = Neprilysin (Homo sapiens, UniProt P08473); assay: Inhibition of Neutral Endopeptidase (NEP); conditions: read-out: I50
Chain of Neprilysin (P08473 whole entry): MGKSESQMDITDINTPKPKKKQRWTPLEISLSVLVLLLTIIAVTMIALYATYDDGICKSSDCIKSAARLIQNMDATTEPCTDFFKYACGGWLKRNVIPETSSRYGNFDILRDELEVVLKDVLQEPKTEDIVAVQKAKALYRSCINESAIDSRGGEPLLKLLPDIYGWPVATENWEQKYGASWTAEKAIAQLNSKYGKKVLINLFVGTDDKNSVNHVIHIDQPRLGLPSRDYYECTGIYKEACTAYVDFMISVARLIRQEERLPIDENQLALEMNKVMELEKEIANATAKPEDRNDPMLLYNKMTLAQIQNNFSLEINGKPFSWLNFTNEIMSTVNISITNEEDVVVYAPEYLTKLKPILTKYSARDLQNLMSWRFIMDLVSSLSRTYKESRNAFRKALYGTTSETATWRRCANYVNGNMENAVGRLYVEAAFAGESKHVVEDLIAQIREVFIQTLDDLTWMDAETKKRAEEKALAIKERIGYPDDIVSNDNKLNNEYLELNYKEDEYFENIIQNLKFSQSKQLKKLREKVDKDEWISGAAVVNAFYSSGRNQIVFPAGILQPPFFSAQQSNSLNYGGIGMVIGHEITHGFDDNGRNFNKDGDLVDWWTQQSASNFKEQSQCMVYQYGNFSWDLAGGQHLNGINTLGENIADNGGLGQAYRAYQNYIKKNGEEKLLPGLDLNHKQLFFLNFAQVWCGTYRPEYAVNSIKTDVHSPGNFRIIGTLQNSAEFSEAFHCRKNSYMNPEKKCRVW

Rattus norvegicus [2] = assay: Compound was tested in vivo for inhibition of Angiotensin I(AI) induced pressor response in normotensive rat after iv administration; type: functional
Rattus norvegicus [3] = assay: Maximal percentage inhibition of Angiotensin I(AI) induced pressor response in normotensive rat at 0.15 (umol/kg) (iv); type: functional

Chain of Angiotensin-converting enzyme (P12821 whole entry): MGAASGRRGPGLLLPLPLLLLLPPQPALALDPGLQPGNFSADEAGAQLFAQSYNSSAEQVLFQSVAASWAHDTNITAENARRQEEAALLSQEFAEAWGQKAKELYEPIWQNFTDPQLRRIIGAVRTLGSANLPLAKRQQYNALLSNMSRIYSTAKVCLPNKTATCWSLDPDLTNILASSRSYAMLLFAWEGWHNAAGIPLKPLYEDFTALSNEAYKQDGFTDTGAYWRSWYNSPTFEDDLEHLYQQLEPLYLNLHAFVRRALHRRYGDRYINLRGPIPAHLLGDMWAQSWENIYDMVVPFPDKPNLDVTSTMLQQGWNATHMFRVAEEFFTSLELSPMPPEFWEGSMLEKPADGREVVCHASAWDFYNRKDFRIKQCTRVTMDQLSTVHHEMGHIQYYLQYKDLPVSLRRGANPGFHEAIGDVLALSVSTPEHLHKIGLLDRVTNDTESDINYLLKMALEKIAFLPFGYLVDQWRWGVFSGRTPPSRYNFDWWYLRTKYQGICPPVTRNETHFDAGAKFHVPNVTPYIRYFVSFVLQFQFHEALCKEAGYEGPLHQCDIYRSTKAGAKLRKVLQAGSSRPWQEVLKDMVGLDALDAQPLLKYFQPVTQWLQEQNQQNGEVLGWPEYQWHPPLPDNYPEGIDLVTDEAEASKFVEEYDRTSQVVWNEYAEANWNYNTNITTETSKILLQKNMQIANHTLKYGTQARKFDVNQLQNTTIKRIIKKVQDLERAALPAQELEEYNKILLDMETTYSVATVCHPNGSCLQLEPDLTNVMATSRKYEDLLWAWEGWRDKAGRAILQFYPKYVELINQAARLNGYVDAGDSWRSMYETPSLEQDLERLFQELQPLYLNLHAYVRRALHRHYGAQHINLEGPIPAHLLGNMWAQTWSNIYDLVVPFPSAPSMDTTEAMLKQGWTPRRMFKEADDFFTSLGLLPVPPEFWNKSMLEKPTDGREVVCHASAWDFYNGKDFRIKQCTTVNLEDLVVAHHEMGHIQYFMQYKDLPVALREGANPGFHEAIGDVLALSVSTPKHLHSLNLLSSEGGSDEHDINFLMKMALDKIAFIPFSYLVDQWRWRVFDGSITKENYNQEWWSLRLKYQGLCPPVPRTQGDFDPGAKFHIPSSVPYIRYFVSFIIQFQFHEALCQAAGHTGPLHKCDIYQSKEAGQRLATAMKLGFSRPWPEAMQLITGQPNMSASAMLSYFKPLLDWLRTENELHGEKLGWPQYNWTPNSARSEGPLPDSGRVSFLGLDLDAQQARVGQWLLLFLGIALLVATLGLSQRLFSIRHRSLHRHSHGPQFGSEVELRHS

Structure (SMILES): O=C(O)CN1C(=O)C(NC(=O)[C@@H](S)Cc2ccccc2)CCCc2ccccc21 (stereo partly specified)
IC50 [1]: 25 nM | IC50 (Neprilysin): 1120 nM

Structure (SMILES): O=C(O)CN1C(=O)[C@H](NC(=O)[C@@H](S)Cc2ccccc2)CCc2ccccc21
IC50 [1]: 306 nM | IC50 (Neprilysin): 560 nM

Structure (SMILES): C[C@H](S)C(=O)N[C@H]1CCc2ccccc2N(CC(=O)O)C1=O
IC50 [1]: 24 nM | IC50 (Neprilysin): 1850 nM

Structure (SMILES): CC(S)(Cc1ccccc1)C(=O)N[C@H]1CCc2ccccc2N(CC(=O)O)C1=O (stereo in doubt; form 2)
IC50 [1]: 63 nM | IC50 (Neprilysin): 2000 nM

Structure (SMILES): O=C(O)CN1C(=O)[C@@H](NC(=O)[C@@H](S)CC2CCCCC2)CCc2ccccc21
IC50 [1]: 22 nM | IC50 (Neprilysin): 4260 nM

Structure (SMILES): CC(S)(Cc1ccccc1)C(=O)N[C@H]1CCc2ccccc2N(CC(=O)O)C1=O (stereo in doubt; form 1)
IC50 [1]: 183 nM | IC50 (Neprilysin): 865 nM

Now those with a lower IC50 (Neprilysin), led by results:

IC50 [1]: 33 nM | IC50 (Neprilysin): 175 nM
Structure (SMILES): O=C(O)CN1Cc2ccccc2C[C@H](NC(=O)[C@@H](S)Cc2ccccc2)C1=O

IC50 [1]: 14 nM | IC50 (Neprilysin): 137 nM
Structure (SMILES): C[C@H](NC(=O)[C@@H](S)Cc1ccccc1)C(=O)N(CC(=O)O)c1ccccc1
ED50 (Rattus norvegicus [2]): 0.15 µmol/kg | Inhibition (Rattus norvegicus [3]): 42%

IC50 [1]: 22 nM | IC50 (Neprilysin): 82 nM
Structure (SMILES): O=C(O)CN1CCCC[C@H](NC(=O)[C@@H](S)Cc2ccccc2)C1=O
ED50 (Rattus norvegicus [2]): 0.83 µmol/kg

IC50 [1]: 5.4 nM | IC50 (Neprilysin): 36 nM
Structure (SMILES): CCCC[C@H](S)C(=O)N[C@H]1CCc2ccccc2N(CC(=O)O)C1=O
ED50 (Rattus norvegicus [2]): 0.06 µmol/kg

IC50 [1]: 284 nM | IC50 (Neprilysin): 14 nM
Structure (SMILES): O=C(O)CN1C(=O)[C@@H](NC(=O)[C@H](S)Cc2ccccc2)CCc2ccccc21

IC50 [1]: 6.3 nM | IC50 (Neprilysin): 7 nM
Structure (SMILES): CC(C)C[C@H](S)C(=O)N[C@H]1CCc2ccccc2N(CC(=O)O)C1=O
ED50 (Rattus norvegicus [2]): 0.23 µmol/kg

IC50 (Neprilysin): 6 nM
Structure (SMILES): O=C(O)CN1C(=O)[C@@H](NC(=O)[C@@H](S)Cc2ccccc2)CCc2ccccc21
ED50 (Rattus norvegicus [2]): 0.02 µmol/kg
